Structures can show the parent of a compound that is named as a salt.
Key:
[1] = system: AR42J cells; conditions: 1 nM CI-988; gastrin 1 nM; after 96 hours of treatment; cited from earlier work
[2] = system: pancreatic tumor; test: In vivo pancreatic tumor weight
Protocol: This second part of the example depicts cell proliferation of human pancreatic cell lines, PANC-1, BxPC3 and PAN-1 using a tetrazolium-based combined with anti-gastrin G17 antibodies induced by G17DT (10-500 μg/ml). The G17DT elicited antibodies are active against both serum-associated and tumor-secreted, proliferative forms of gastrin. The PAN-1 cell were administered at clinically reflective doses.
In vivo G17DT alone inhibited basal pancreatic tumor weight by 33% (p=0.016, ANOVA) compared to 38% for Gemcitabine (p=0.004, ANOVA). When combined the agents inhibited tumor weight by 55% which was significant from G17DT alone (p=0.025). Thus the immunological agent G17DT may promote the therapeutic efficacy of Gemcitabine.

[3] = after IV administration; cited from earlier work
[4] = in vivo; cited from earlier work
[5] = in vivo; cited from earlier work; remark: listed apart in the source
[6] = system: hormone-refractory prostate cancer; conditions: 75 mg/m^2 every 21 days, cited from earlier work
[7] = system: gastrin-sensitive mouse colon tumor, MC26; conditions: xenograft mice bearing MC26; 25 days in control animals; cited from earlier work

Q: With `C[C@](Cc1c[nH]c2ccccc12)(NC(=O)OC1[C@H]2C[C@@H]3C[C@@H](C[C@H]1C3)C2)C(=O)NC[C@H](NC(=O)CCC(=O)O)c1ccccc1` (stereo partly drawn) [CI-988] as the molecule, how does the “inhibition of proliferation of gastrin-stimulated AR42J cells” value [1] read?
A: The value was “about 47%”.

Q: With `Nc1ccn([C@@H]2O[C@H](CO)[C@@H](O)C2(F)F)c(=O)n1` [Gemcitabine, 2′, 2′, difluorodeoxycytidine] as the molecule, how does the “inhibition of basal pancreatic tumor weight” value [2] read?
A: Its value is 38%.

Q: And the “excreted unchanged as gemcitabine” value [3]?
A: The value was 5%.

Q: What about the cumulative toxicity [4] of the same molecule?
A: Its cumulative toxicity is “no evidence of cumulative toxicity”.

Q: And the overall toxicity [4]?
A: Its overall toxicity is “moderate”.

Q: Which G1 adverse effects [5] does the source give for `CCc1c2c(nc3ccc(OC(=O)N4CCC(N5CCCCC5)CC4)cc13)-c1cc3c(c(=O)n1C2)COC(=O)[C@]3(O)CC` [Irinotecan, (S)-4,1-diethyl-3,4,12,14-tetrahydro-4-hydroxy-3,14-dioxi-[H-pyrano[3′,4′:67]-indolizino[1,2-b]quinolin-9-yl-[1,4′-bipiperidine]-1′-carboxylate, monohydrochloride, trihydrate] here?
A: Its G1 adverse effects is “early and late diarrhea”.

Q: And the “adverse effects in addition to the G1 manifestations” value [5]?
A: The value was “myelosuppresion and hypersensitivity reactions”.

Q: With `CC(=O)O[C@@]12CO[C@@H]1C[C@H](O)[C@@]1(C)C(=O)[C@H](O)C3=C(C)[C@@H](OC(=O)[C@H](O)[C@@H](NC(=O)OC(C)(C)C)c4ccccc4)C[C@@](O)([C@@H](OC(=O)c4ccccc4)[C@H]21)C3(C)C` [docetaxel] as the molecule, how does the median overall survival [6] read?
A: Its median overall survival is 27 months.

Q: What about the “patients with response (more than 40% PSA decline and more than 50% reduction of bi-dimensional cross-products)” value ([6]; including one complete response) of the same molecule?
A: Its value is 17 of the 35.

Q: What about the “median duration of responses” value ([6]; range 2 to 24 months) of the same molecule?
A: Its value is “nine”.

Q: And the toxicity ([6]; two deaths during the study)?
A: The toxicity was “remained tolerable throughout the treatment”.

Q: Which survival [7] does the source give for `CCCN(CCC)C(=O)C(CCC(=O)O)NC(=O)c1ccccc1` (stereo not drawn) [proglumide] here?
A: The survival was 39 days.
